Results: PubChem BioAssay (NCI)
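Briefly, cells in 96-well plates were exposed to five compound concentrations for 48 h, and endpoints were estimated by linear interpolation. The concentration for 50% growth inhibition is given as GI50. TGI marks complete inhibition of growth.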

Experiments:
Test in all cases: DTP human tumour cell line panel, 48 h
NCI/ADR-RES ovarian = test system: NCI/ADR-RES ovarian
UO-31 renal = test system: UO-31 renal
OVCAR-5 ovarian = test system: OVCAR-5 ovarian
SN12C renal = test system: SN12C renal
SF-295 CNS = test system: SF-295 CNS
SK-MEL-2 melanoma = test system: SK-MEL-2 melanoma
SF-539 CNS = test system: SF-539 CNS
OVCAR-3 ovarian = test system: OVCAR-3 ovarian
DU-145 prostate = test system: DU-145 prostate
NCI-H522 lung = test system: NCI-H522 lung

SMILES | GI50 (NCI/ADR-RES ovarian) [µM] | TGI (NCI/ADR-RES ovarian) [µM] | GI50 (UO-31 renal) [µM] | TGI (UO-31 renal) [µM] | GI50 (OVCAR-5 ovarian) [µM] | TGI (OVCAR-5 ovarian) [µM] | GI50 (SN12C renal) [µM] | TGI (SN12C renal) [µM] | GI50 (SF-295 CNS) [µM] | TGI (SF-295 CNS) [µM] | GI50 (SK-MEL-2 melanoma) [µM] | TGI (SK-MEL-2 melanoma) [µM] | GI50 (SF-539 CNS) [µM] | TGI (SF-539 CNS) [µM] | GI50 (OVCAR-3 ovarian) [µM] | TGI (OVCAR-3 ovarian) [µM] | GI50 (DU-145 prostate) [µM] | TGI (DU-145 prostate) [µM] | GI50 (NCI-H522 lung) [µM] | TGI (NCI-H522 lung) [µM]
CC(C)[C@@]12C[C@@H](OC(=O)COC(=O)/C=C/c3ccccc3)[C@@](C)(O1)[C@@H]1CC[C@@H](C)[C@H]1[C@@H]2OC(=O)/C=C/c1ccccc1 | 0.569 | > 100 | 0.0656 | 0.216 | > 100 | > 100 | 1.42 | > 100 | > 100 | > 100 | > 100 | > 100 | > 100 | > 100 | > 100 | > 100 | > 100 | > 100 | > 100 | > 100
CC1=CCC(OC(=O)C(C)(C)CCC(O)(C(=O)OC2(C(C)C)CCC3(C)OC3C2)C(C)C)(C(C)C)CC1 (stereo not given) | 0.635 | 2.63 | 0.0634 | 0.164 | 0.695 | 1.39 | 0.124 | 0.532 | 0.69 | 1.39 | 0.79 | 1.78 | 0.707 | 1.36 | 0.0833 | 0.166 | 0.23 | 0.451 | 0.13 | 0.439
COc1ccc(-c2cnnn2-c2cc(OC)c3c(c2)OCO3)cc1 | 0.0403 | – | 1.1 | > 100 | 0.502 | > 100 | 0.658 | > 100 | 0.0585 | > 100 | 0.0955 | 90.4 | 0.116 | 0.411 | 0.0547 | 0.437 | 0.291 | – | 0.0354 | 0.525
N=c1c2c(-c3ccccc3)c(-c3ccccc3)n(Cc3ccccc3)c2ncn1CCCO | 1.33 | 17.6 | 2.24 | 16.5 | 7.27 | 23.4 | 1.99 | 19.6 | 0.58 | 3.32 | 1.77 | 5.64 | 1.24 | 4.17 | 1.38 | 8.08 | 3.14 | 19.1 | 0.756 | 3.46
CCc1cccc2c3c(sc12)C(c1ccc(Cl)cc1)C(C#N)=C(N)O3 (stereo not given) | 0.349 | 2.24 | 0.691 | 13.4 | 1.42 | 8.93 | 0.805 | 12.5 | 0.306 | 1.17 | 1.25 | 19.2 | 0.36 | 1.56 | 0.384 | 2.67 | 0.596 | 11.4 | 0.338 | 4.39
C=C(C)[C@@H]1CC[C@]2(C(=O)NCCNCCNCCN)CC[C@]3(C)[C@H](CC[C@@H]4[C@@]5(C)CC[C@H](O)C(C)(C)[C@@H]5CC[C@]43C)[C@@H]12 | 18.9 | 59 | 11.7 | 24.7 | 18.6 | 35 | 13.5 | 33.2 | 13.8 | 30.3 | 16.8 | 37.3 | 11.1 | 23.7 | 12.2 | 25.7 | 14.1 | 30.1 | 10.3 | 25.4
NC(=O)c1cc([N+](=O)[O-])c(Cl)c([N+](=O)[O-])c1 | 3.67 | 13.9 | 1.77 | 3.24 | 5.53 | 17.6 | 1.8 | 3.57 | 17.3 | 31.9 | 13.7 | 27.8 | 2.02 | 4 | 1.97 | 3.51 | 2.15 | 3.92 | 1.94 | 3.57
NC1=C(Br)C(=O)c2ncccc2C1=O | 0.987 | 6.12 | – | 1.07 | – | 3.49 | – | 2.1 | – | 1.41 | – | 1.49 | – | 0.629 | – | 2.33 | 0.709 | 2.14 | – | 0.766
COC(=O)c1cc(-c2cc(OC)c(OC)c(OC)c2)[nH]c1N/N=C/c1c(Cl)cccc1Cl | 1.46 | 18.4 | 0.837 | 4.51 | 2.25 | 13.4 | 3.3 | > 74.3 | 1.01 | 22.8 | 3.01 | 17.9 | 1.35 | 5.47 | 0.57 | 3.02 | 1.85 | 16.3 | 3.39 | 18.6
O=C(/C=C/c1cccs1)c1ccc(Nc2nc(Nc3ccc(F)cc3)nc(Nc3ccc(F)cc3)n2)cc1 | 31.3 | > 100 | 19.5 | 79.7 | > 100 | > 100 | > 100 | > 100 | 20.4 | 46.6 | 44.4 | > 100 | 17.8 | 35.7 | 17.7 | 35.3 | 52.7 | > 100 | 20.5 | 46.4
Cc1ccc2c(c1C)-c1c(ccc(C)c1C)C(=O)C2=O | – | 0.384 | – | 4.36 | – | 3.42 | – | 2.73 | – | 2.95 | – | 3.1 | – | 0.42 | – | 1.1 | – | 3.41 | – | 0.403
O=C1/C(=C/c2ccc([N+](=O)[O-])o2)Oc2ccc(Br)cc21 | 10.9 | 42 | 1.46 | 3.02 | 2.57 | 9.17 | 1.96 | 4.53 | 17.1 | 36.8 | 2.24 | 4.43 | 1.89 | 4.19 | 1.99 | 3.56 | 9.31 | 21.1 | 1.88 | 3.35
